Measurements taken from patent US20030054549A1, “Stem cell reinforcing material” (priority 2000, published 2003).

Experiments:
[1] = system: bone marrow hematopoietic stem cells; assay: Example 4: mouse spleen colony method with radiation exposure and bone marrow transplant, female rats, mixture vs genistein vs 17β estradiole; type: in vivo; details: female ICR, 8 Gy; for spleen weight after radiation exposure per 10 g body weight: day 10 after bone marrow transplant
Protocol: They were reared with five rats in each group.
With the exception of comparative groups 8 and 9, bone marrow transplant was performed 24 hours after radiation exposure on the rats of comparative groups 10 and 11 as well as those of experimental groups 7, 8, and 9.
Body weight of all rats was determined when rearing was started, after one week, and after two weeks and before bone marrow transplant and on day 5, day 7 and day 10 after transplant.

[2] = system: bone marrow hematopoietic cells and reproductive stem cells
Protocol: 1) Healthy male rats of equal body weight in each group were reared as the sample (male ICR) (six weeks old). They were reared with 10 rats each in comparative groups 3, 4 and 5 as well as experimental group 4 and 5 rats in experimental group 3.
The rats of comparative groups 4 and 5 as well as experimental groups 3 and 4 were systemically exposed one time only to a dose of 8 Gy after three weeks of rearing.
Bone marrow transplant was performed on the rats of each group 24 hours after radiation exposure. In this case, the femur of a donor rat of the same species was cut out. A small piece was cut off from both ends of the femur with a clean bench. Once 1 ml RPMI medium 1640 medium containing 10% antibiotic-antimycotic was injected with a syringe from one end through the medullary cavity, it was pushed into a test tube. The marrow cell count was adjusted to 10^5/ml and 0.5 ml was injected from a caudal vein. The donor rat had been systemically exposed to 2 Gy radiation and reared for three weeks on feed of 1 wt % of the koji mold soybean fermentation and cultivation product added to ordinary food.
All of the rats were sacrificed, the spleen was excised, spleen weight and the number of spleen colonies formed were determined, and the […] were likewise excised and testicle weight was determined after determining body weight on day 7 after bone marrow transplant.
Body weight of all rats was determined before bone marrow transplant and on day 7 after transplant.

O=c1c(-c2ccc(O)cc2)coc2cc(O)cc(O)c12 [genistein]
spleen weight after radiation exposure per 10 g body weight ([1]; 30 mg/kg body weight in feed, vs comparative groups 9 and 10): significantly higher | number of spleen colonies that formed following transplant after radiation exposure ([1]; 30 mg/kg body weight in feed, day 10 after transplant, vs comparative groups 10 and 11): significantly higher | body weight ([1]; 30 mg/kg body weight in feed, judging from day 7 after radiation exposure): tendency toward an increase

CN(C)CCOc1ccc(/C(=C(/CCCl)c2ccccc2)c2ccccc2)cc1 [toremifen]
spleen weight after radiation exposure per 10 g body weight ([2]; male ICR, 30 mg/kg body weight in feed, 8 Gy, day 7 after bone marrow transplant, compared to unexposed comparative group 3): somewhat lower value than the others | testicle weight after radiation exposure per 10 g body weight ([2]; male ICR, 30 mg/kg body weight in feed, 8 Gy, day 7 after transplant, compared to unexposed comparative group 3): likewise lower | toxicity (spleen weight and body weight lower) ([2]; rat, in vivo, 30 mg/kg): considerably stronger than isoflavone aglycone

C[C@]12CC[C@@H]3c4ccc(O)cc4CC[C@H]3[C@@H]1CC[C@@H]2O [17β estradiole]
spleen weight after radiation exposure per 10 g body weight ([1]; 10 μg/kg body weight in feed): lower values than experimental groups 7, 8 and 9 | spleen colony formation ([1]; 10 μg/kg body weight in feed, day 10 after transplant): no augmentation whatsoever
